The source of these data is paper PMC9264725 (European Journal of Medicinal Chemistry, 2022).

In general, half-life refers to the time needed for the level to fall by half in the phase considered. A word on the EC50: it is the concentration that produces a half-maximal response. As usually defined, the IC50 is the concentration that inhibits the measured activity by half.

Where two headings read alike, the source gives them in different places. Bounds are passed on as bounds.

For data set [1] the following is noted: rats, oral administration; cited from earlier work.
The test system of data set [2] is SARS-CoV-2. The following applies: read-out: EC50 as SARS-CoV-2 inhibitor; cited from earlier work.
Data set [3] deals with M^Pro. The following applies: cited from earlier work.
In data set [4] the target is M^Pro-eGFP ectopically expressed in 293T cells (Severe acute respiratory syndrome coronavirus 2, UniProt P0DTD1). The data set can be described thus: cell-based. The class given is cell-based, SARS-CoV-2.
For data set [5], the system named is SARS-CoV-2 USA-WA1/2020 strain. The data set can be described thus: Plaque reduction neutralization test in Vero E6 cells, USA-WA1/2020. In kind it is cell-based. The following applies: PRNT, three days. On the technique in general: Plaque reduction counts the foci of infection that form in a cell layer.
Data set [6] concerns SARS-CoV-2 Beta strain. The data set can be described thus: Plaque reduction neutralization test in Vero E6 cells, Beta. The class given is cell-based. The following applies: PRNT, three days.
Data set [7] concerns SARS-CoV-2 Delta strain. Description: Plaque reduction neutralization test in Vero E6 cells, Delta. In kind it is cell-based. The following applies: PRNT, three days.

On to MPI8, for which the half-life in data set [1] is given as 1.22 h. In data set [2], the concentration for a half-maximal effect (EC50) is 0.03 µM. Moreover, the IC50 in data set [3] (read-out: IC50 (in vitro potency)) is approximately 0.1 µM.
`CC(C)[C@H](NC(=O)NC(C)(C)C)C(=O)N[C@@H](CC1CC1)C(=O)N[C@H](C=O)C[C@@H]1CCNC1=O` [MPI39] came in with an EC50 in data set [4] of more than 10 µM.
With `CC(C)(C)OC(=O)N[C@H](C(=O)N1C[C@H]2[C@@H]([C@H]1C(=O)N[C@H](C=O)C[C@@H]1CCNC1=O)C2(C)C)C(C)(C)C` [MPI43], the “in cellulo potency higher than MPI40” value in data set [4] came to 20 fold.
As to `CC(C)(C)NC(=O)N[C@H](C(=O)N1C[C@H]2[C@@H]([C@H]1C(=O)NC(CC1CCC1)C(=O)C(N)=O)C2(C)C)C(C)(C)C` (stereo partly shown) [Boceprevir], the IC50 in data set [3] (read-out: Enzymatic IC50, ref 15) is 8 µM; in data set [3] (read-out: Enzymatic IC50, ref 16), 4.2 ± 0.6 µM.
Consider `CC(C)(C)CC(=O)N[C@H](C(=O)N1C[C@H]2[C@@H]([C@H]1C(=O)N[C@H](C=O)C[C@@H]1CCNC1=O)C2(C)C)C(C)(C)C` [MPI40], for which the “Antiviral EC50” value in data set [5], in data set [6] and in data set [7] was “no inhibition at all tested concentrations” each time.
